Measurements taken from publication PMC12087695, “A Phenotyping Tool for Seven Cytochrome P450 Enzymes and Two Transporters: Application to Examine the Effects of Clopidogrel and Gemfibrozil” (Clinical Pharmacology and Therapeutics, 2025).
Like-named read-outs stand apart in the source and are kept apart here.

Experiments:
[1] = Safety: adverse effects and blood glucose monitoring; type: in vivo, human
Procedure: (§1) On study days, venous blood samples from all participants were drawn from forearm vein cannulas before the administration of the pretreatment drugs and 5 minutes before and 0.5, 1, 1.5, 2, 3, 4, 6, 8, 12, and 23 hours after the administration of the index drugs for determination of index drug and metabolite concentrations. Additional venous blood samples for biomarker analyses were drawn before the administration of the pretreatment drugs and 5 minutes before and 3 hours after the administration of the index drugs. Standardized breakfast was served 1 hour, lunch 3 hours, and snacks 7 and 9 hours after the administration of index drugs. Blood glucose levels were monitored with CareSens Dual point‐of‐care blood glucose meter (i‐SENS Inc., Seoul, South Korea) at each venous blood sampling time point up to 12 hours after the administration of index drugs.

[2] = clinical; conditions: human, in vivo; for AUC(0-t) / AUC(0-inf) / Cmax: geometric mean (geometric CV); for AUC(0-inf): AUC0-∞; for half-life: t1/2, geometric mean (geometric CV)
Procedure: (§2) This open‐label cross‐over clinical trial included five study phases that each participant underwent in a randomized order (Table 1 ). There was at least 2‐week washout period between different study days.
(§3) On study days, venous blood samples from all participants were drawn from forearm vein cannulas before the administration of the pretreatment drugs and 5 minutes before and 0.5, 1, 1.5, 2, 3, 4, 6, 8, 12, and 23 hours after the administration of the index drugs for determination of index drug and metabolite concentrations. […] Standardized breakfast was served 1 hour, lunch 3 hours, and snacks 7 and 9 hours after the administration of index drugs.
(§4) Prior to the analysis, the analytes were extracted from the plasma samples with simple protein precipitation. Plasma samples (50 μL) were mixed with acetonitrile solution (200 μL) containing internal standards. The samples were centrifugated and an aliquot of the supernatant was mixed with an equal volume of water before LC–MS analyses.
(§5) The flow rate was 0.3 mL/min, and the gradient program for the mobile phase B was from 20% to 90% over 7 minutes, wash at 90% 7–9.5 minutes, followed by balancing at 20% before next injection. […] The column and mobile phases were the same as above, and the gradient program for the mobile phase B was from 40% to 90% over 5 minutes, wash at 90% 5–7.3 minutes, followed by balancing at 40% before next injection. The quality control samples for each analyte at relevant concentrations were quantified with each batch of plasma samples.
(§6) Individuals with poor metabolism or transport function phenotype were excluded from respective statistical comparisons.

[3] = Plasma pharmacokinetics of cocktail index drugs and their metabolites, five-phase crossover trial; conditions: phase I: repaglinide 0.05 mg alone;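 also: parameters derived from plasma drug levels quantified by LC–MS with internal standards after acetonitrile protein precipitation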
Procedure: as §2, §3, §4, §5, §6

[4] = biological target: T1, CYP2C8 (Homo sapiens, UniProt P10632); conditions: in vivo
T1 sequence (P10632 1-490): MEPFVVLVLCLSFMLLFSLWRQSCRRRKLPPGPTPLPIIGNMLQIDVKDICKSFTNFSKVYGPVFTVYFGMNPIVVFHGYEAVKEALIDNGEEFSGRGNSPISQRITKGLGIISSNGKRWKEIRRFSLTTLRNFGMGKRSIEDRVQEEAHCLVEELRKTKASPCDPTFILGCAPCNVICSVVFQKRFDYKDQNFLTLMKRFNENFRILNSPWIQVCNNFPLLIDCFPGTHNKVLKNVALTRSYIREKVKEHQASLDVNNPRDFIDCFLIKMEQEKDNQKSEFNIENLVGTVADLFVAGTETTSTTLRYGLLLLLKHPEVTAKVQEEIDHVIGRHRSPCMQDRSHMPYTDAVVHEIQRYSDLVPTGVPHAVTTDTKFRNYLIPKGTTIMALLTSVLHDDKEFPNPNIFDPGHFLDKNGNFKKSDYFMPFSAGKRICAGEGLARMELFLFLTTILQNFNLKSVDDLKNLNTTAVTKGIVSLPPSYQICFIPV
Procedure: as §2
(§7) On study days, venous blood samples from all participants were drawn from forearm vein cannulas before the administration of the pretreatment drugs and 5 minutes before and 0.5, 1, 1.5, 2, 3, 4, 6, 8, 12, and 23 hours after the administration of the index drugs for determination of index drug and metabolite concentrations. […] Blood glucose levels were monitored with CareSens Dual point‐of‐care blood glucose meter (i‐SENS Inc., Seoul, South Korea) at each venous blood sampling time point up to 12 hours after the administration of index drugs.
(§8) The limit of quantification for repaglinide was 0.01 ng/mL. […] For GCDCA‐3G and GCDCA‐3S, the limit of quantification was 0.5 ng/mL and the between‐day precisions and accuracies were below 5% and ± 10% at relevant concentrations (10 and 200 ng/mL).
(§9) As for biomarkers, AUC0‐3h values in phases I–III and AUC0‐4h values in phases III–V for GCDCA‐3G and GCDCA‐3S and AUC0‐4h values in phases III and V for M430, M444, and solanidine were calculated with trapezoidal rule in Excel (Microsoft, Redmond, WA). 0‐hour metabolic ratio and AUC0‐4h ratios were calculated for M430/solanidine and M444/solanidine. […]

[5] = biological target: T2, OATP1B3 (Homo sapiens, UniProt Q9NPD5); assay: OATP1B3 endogenous biomarker GCDCA-3S in plasma; conditions: GCDCA-3S biomarker data
T2 sequence (Q9NPD5 1-702): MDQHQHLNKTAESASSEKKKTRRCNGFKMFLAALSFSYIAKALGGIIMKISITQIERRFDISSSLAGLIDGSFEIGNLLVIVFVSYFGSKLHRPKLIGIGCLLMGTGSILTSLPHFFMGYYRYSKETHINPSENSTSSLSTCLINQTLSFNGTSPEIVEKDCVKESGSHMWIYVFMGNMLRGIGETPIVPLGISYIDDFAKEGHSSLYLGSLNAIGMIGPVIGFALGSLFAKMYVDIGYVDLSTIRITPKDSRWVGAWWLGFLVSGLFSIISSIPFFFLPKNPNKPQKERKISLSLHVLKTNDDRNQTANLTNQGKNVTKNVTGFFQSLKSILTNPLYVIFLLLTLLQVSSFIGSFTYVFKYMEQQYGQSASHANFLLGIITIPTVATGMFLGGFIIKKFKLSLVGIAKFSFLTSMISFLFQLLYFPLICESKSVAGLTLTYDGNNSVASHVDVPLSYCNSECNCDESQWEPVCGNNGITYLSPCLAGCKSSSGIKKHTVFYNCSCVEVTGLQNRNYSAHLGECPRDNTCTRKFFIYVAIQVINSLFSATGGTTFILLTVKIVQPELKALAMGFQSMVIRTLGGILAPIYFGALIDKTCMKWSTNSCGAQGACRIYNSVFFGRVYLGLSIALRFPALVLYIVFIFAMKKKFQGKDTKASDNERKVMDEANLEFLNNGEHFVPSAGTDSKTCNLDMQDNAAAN
Procedure: (§10) On study days, venous blood samples from all participants were drawn from forearm vein cannulas before the administration of the pretreatment drugs and 5 minutes before and 0.5, 1, 1.5, 2, 3, 4, 6, 8, 12, and 23 hours after the administration of the index drugs for determination of index drug and metabolite concentrations. Additional venous blood samples for biomarker analyses were drawn before the administration of the pretreatment drugs and 5 minutes before and 3 hours after the administration of the index drugs.
(§11) Plasma repaglinide, OATP1B1 biomarker GCDCA‐3G, OATP1B3 biomarker GCDCA‐3S, and CYP2D6 biomarker solanidine were analyzed using Sciex 5500 Qtrap and Sciex 6500 Qtrap LC–MS systems (AB Sciex, Toronto, ON, Canada) as previously described.[20], [21], [22] The limit of quantification for repaglinide was 0.01 ng/mL. The between‐day precisions (CV%) for quality controls (0.1 and 2.0 ng/mL) were below 10% and accuracies were within ±10%. For GCDCA‐3G and GCDCA‐3S, the limit of quantification was 0.5 ng/mL and the between‐day precisions and accuracies were below 5% and ± 10% at relevant concentrations (10 and 200 ng/mL).
(§12) As for biomarkers, AUC0‐3h values in phases I–III and AUC0‐4h values in phases III–V for GCDCA‐3G and GCDCA‐3S and AUC0‐4h values in phases III and V for M430, M444, and solanidine were calculated with trapezoidal rule in Excel (Microsoft, Redmond, WA).
(§13) Individuals with poor metabolism or transport function phenotype were excluded from respective statistical comparisons. Additionally, to keep comparisons balanced, subjects lacking pharmacokinetic variable data in any study phase were excluded from the respective analyses. Prior to statistical analyses with IBM SPSS Statistics Version 29.0 for Windows (IBM Corporation, Armonk, NY), all pharmacokinetic variable values were logarithmically transformed. Pharmacokinetic variables except T max were compared between different study phases by repeated‐measures analysis of variance with study phase as a within‐subjects factor. T max values were compared with Wilcoxon signed‐rank test. Differences with P < 0.05 after the Bonferroni correction were considered statistically significant. The data are presented as geometrical mean values or geometric mean ratios with geometric CV or 90% confidence intervals (CI) if not otherwise indicated.

[6] = system: CYP2C9; conditions: index drug data, healthy volunteers
Procedure: as §2, §7
(§14) The flow rate was 0.3 mL/min, and the gradient program for the mobile phase B was from 20% to 90% over 7 minutes, wash at 90% 7–9.5 minutes, followed by balancing at 20% before next injection. […] The quality control samples for each analyte at relevant concentrations were quantified with each batch of plasma samples.
(§15) As for biomarkers, AUC0‐3h values in phases I–III and AUC0‐4h values in phases III–V for GCDCA‐3G and GCDCA‐3S and AUC0‐4h values in phases III and V for M430, M444, and solanidine were calculated with trapezoidal rule in Excel (Microsoft, Redmond, WA). […]

[7] = biological target: T3, CYP1A2 (Homo sapiens, UniProt P05177); assay: CYP1A2 phenotyping, paraxanthine/caffeine metabolic ratios; type: in vivo; conditions: index drug data, healthy volunteers
T3 sequence (P05177 1-516): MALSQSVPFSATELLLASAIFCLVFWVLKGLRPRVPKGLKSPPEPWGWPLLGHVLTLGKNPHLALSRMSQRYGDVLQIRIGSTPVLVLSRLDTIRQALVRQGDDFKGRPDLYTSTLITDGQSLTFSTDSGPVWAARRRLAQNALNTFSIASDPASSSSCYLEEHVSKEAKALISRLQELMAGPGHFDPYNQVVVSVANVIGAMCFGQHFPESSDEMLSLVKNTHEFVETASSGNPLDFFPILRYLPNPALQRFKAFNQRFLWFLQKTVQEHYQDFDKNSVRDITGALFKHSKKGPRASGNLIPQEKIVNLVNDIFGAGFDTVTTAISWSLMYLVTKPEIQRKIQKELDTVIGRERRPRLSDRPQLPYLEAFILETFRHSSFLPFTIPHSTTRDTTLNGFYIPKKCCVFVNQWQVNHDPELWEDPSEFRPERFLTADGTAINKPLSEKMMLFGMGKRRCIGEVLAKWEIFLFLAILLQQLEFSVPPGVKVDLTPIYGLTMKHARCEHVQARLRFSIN
Procedure: as §2, §7, §14, §15

[8] = system: OATP1B1; assay: OATP1B1 endogenous biomarker GCDCA-3G in plasma; conditions: GCDCA-3G biomarker data
Procedure: as §10, §11, §12, §13

[9] = system: CYP2D6; conditions: in vivo
Procedure: as §2, §7, §14, §15

[10] = biological target: T1, CYP2C8; assay: CYP2C8 phenotyping with index drug repaglinide; conditions: repaglinide index drug data, healthy volunteers
Procedure: as §2, §7, §8, §9

[11] = system: CYP2B6; conditions: 75 mg dose; ref US FDA; cited from earlier work
[12] = Plasma pharmacokinetics of pretreatment drugs clopidogrel, gemfibrozil and their metabolites; type: in vivo; conditions: human, after clopidogrel 300 mg single oral dose (phase IV)
Procedure: as §2, §1
The quality control samples for each analyte at relevant concentrations were quantified with each batch of plasma samples.

[13] = system: CYP2B6; conditions: index drug data, healthy volunteers
Procedure: as §2, §7, §14, §15

[14] = biological target: CYP2C19 (Homo sapiens, UniProt P33261); conditions: index drug data, healthy volunteers
Procedure: as §2, §7, §14, §15

[15] = 0.05 mg, phase I: repaglinide 0.05 mg alone
[16] = phase IV: clopidogrel 300 mg pretreatment + full cocktail
[17] = phase V: gemfibrozil 600 mg b.i.d. 3 days pretreatment + full cocktail

CYP2C19, sequence (P33261 whole entry): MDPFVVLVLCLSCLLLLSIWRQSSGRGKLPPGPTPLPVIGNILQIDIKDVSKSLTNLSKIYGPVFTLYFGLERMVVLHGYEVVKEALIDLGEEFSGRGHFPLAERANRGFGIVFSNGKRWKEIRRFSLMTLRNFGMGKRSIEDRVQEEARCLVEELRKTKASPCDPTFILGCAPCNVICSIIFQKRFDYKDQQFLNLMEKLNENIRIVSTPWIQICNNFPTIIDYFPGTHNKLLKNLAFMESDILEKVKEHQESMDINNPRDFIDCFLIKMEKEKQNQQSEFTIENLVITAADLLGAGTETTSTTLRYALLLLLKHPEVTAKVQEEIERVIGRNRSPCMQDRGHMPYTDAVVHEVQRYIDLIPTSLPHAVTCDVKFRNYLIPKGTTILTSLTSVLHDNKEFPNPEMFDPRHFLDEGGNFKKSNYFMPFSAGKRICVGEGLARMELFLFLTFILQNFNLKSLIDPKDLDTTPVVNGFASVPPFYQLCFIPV

With `CCOc1cc(CC(=O)N[C@@H](CC(C)C)c2ccccc2N2CCCCC2)ccc1C(=O)O` [Repaglinide, repaglinide] as the compound, how does the Hypoglycemia ([1]; 0.05 mg repaglinide, breakfast an hour later, also after gemfibrozil pretreatment) read?
The Hypoglycemia was “no hypoglycemia was observed”.

And the “Safety / adverse effects” value ([1]; all study phases, 16 healthy volunteers)?
Its value is “safe”.

What about the AUC(0-t) ([2]; 0.05 mg, AUC0-4h, phase I: repaglinide 0.05 mg alone) of the same compound?
Its AUC(0-t) is 0.936 ng·h/mL.

What about the AUC(0-t) ([2]; 0.05 mg, AUC0-23h, phase I: repaglinide 0.05 mg alone) of the same compound?
The AUC(0-t) was 1.01 ng·h/mL.

And the AUC(0-inf) [2, 15]?
Its AUC(0-inf) is 1.01 ng·h/mL.

What about the Cmax [2, 15] of the same compound?
The Cmax was 0.701 ng/mL.

And the half-life [2, 15]?
Its half-life is 1.07 h.

And the AUC(0-t) ([2]; AUC0-4h, phase IV: clopidogrel 300 mg pretreatment + full cocktail)?
Its AUC(0-t) is 3.7 ng·h/mL.

What about the AUC(0-t) ([2]; AUC0-4h, phase V: gemfibrozil 600 mg b.i.d. 3 days pretreatment + full cocktail) of the same compound?
The AUC(0-t) was 4.93 ng·h/mL.

And the AUC(0-t) ([2]; AUC0-23h, phase IV: clopidogrel 300 mg pretreatment + full cocktail)?
Its AUC(0-t) is 5.55 ng·h/mL.

What about the AUC(0-t) ([2]; AUC0-23h, phase V: gemfibrozil 600 mg b.i.d. 3 days pretreatment + full cocktail) of the same compound?
The AUC(0-t) was 9.21 ng·h/mL.

What about the AUC(0-inf) [2, 16] of the same compound?
Its AUC(0-inf) is 5.65 ng·h/mL.

What about the AUC(0-inf) [2, 17] of the same compound?
Its AUC(0-inf) is 9.64 ng·h/mL.

And the Cmax [2, 16]?
Its Cmax is 1.69 ng/mL.

What about the Cmax [2, 17] of the same compound?
The Cmax was 2.08 ng/mL.

What about the Tmax ([2]; Tmax, median (range), phase IV: clopidogrel 300 mg pretreatment + full cocktail) of the same compound?
The Tmax was 1 h.

And the half-life [2, 16]?
Its half-life is 2.78 h.

And the half-life [2, 17]?
The half-life was 3.35 h.

And the “Tmax, median (range)” value [3]?
The value was 0.5 (0.5-1.0) h.

With `Cc1ccc(C)c(OCCCC(C)(C)C(=O)O)c1` [Gemfibrozil, gemfibrozil] as the compound, how does the “CYP2C8 inhibition strength in the trial” value [4] read?
The value was “strong”.

And the “OATP1B3 inhibition in the trial” value [5]?
Its value is “does not affect”.

What about the “CYP2C9 inhibition in the trial” value [6] of the same compound?
The value was “lack of any clinically meaningful”.

What about the “CYP1A2 inhibition strength in the trial” value [7] of the same compound?
The value was “weak”.

What about the “OATP1B1 inhibition in the trial” value [8] of the same compound?
Its value is “slightly inhibits and weak”.

And the “CYP2D6 inhibition in the trial” value [9]?
Its value is “lack of any clinically meaningful”.

Which results are given for `COC(=O)[C@H](c1ccccc1Cl)N1CCc2sccc2C1` [Clopidogrel, clopidogrel]?
CYP2C8 inhibition strength in the trial [10]: moderate; OATP1B3 inhibition in the trial [5]: did not affect; CYP2B6 inhibitor classification [11]: weak; Cmax [12]: 3.75 ng/mL; AUC(0-t) ([12]; read-out: AUC0-24h, geometric mean (90% CI)): 11.6 ng·h/mL; OATP1B1 inhibition in the trial [8]: did not affect; CYP2B6 inhibition strength in the trial [13]: moderate; CYP2C19 inhibition strength in the trial [14]: weak
